# pIC50: −log10 of the molar value. Where a name gives a salt, the structure may show the parent alone.
# Experiments:
# [1] = molecular target: ATP-binding cassette sub-family C member 3 (Homo sapiens, UniProt O15438); assay: Inhibition of human MRP3 overexpressed in Sf9 insect cell membrane vesicles assessed as uptake of [3H]-estradiol-17beta-D-glucuronide in presence of ATP and GSH measured after 10 mins by membrane vesicle transport assay; assay type: ADME, cell-based
# [2] = molecular target: T1, ATP-binding cassette sub-family C member 4 (Homo sapiens, UniProt O15439); assay: Inhibition of human MRP4 overexpressed in Sf9 cell membrane vesicles assessed as uptake of [3H]-estradiol-17beta-D-glucuronide in presence of ATP and GSH measured after 20 mins by membrane vesicle transport assay; assay type: ADME, cell-based
# T1 sequence (O15439 whole entry): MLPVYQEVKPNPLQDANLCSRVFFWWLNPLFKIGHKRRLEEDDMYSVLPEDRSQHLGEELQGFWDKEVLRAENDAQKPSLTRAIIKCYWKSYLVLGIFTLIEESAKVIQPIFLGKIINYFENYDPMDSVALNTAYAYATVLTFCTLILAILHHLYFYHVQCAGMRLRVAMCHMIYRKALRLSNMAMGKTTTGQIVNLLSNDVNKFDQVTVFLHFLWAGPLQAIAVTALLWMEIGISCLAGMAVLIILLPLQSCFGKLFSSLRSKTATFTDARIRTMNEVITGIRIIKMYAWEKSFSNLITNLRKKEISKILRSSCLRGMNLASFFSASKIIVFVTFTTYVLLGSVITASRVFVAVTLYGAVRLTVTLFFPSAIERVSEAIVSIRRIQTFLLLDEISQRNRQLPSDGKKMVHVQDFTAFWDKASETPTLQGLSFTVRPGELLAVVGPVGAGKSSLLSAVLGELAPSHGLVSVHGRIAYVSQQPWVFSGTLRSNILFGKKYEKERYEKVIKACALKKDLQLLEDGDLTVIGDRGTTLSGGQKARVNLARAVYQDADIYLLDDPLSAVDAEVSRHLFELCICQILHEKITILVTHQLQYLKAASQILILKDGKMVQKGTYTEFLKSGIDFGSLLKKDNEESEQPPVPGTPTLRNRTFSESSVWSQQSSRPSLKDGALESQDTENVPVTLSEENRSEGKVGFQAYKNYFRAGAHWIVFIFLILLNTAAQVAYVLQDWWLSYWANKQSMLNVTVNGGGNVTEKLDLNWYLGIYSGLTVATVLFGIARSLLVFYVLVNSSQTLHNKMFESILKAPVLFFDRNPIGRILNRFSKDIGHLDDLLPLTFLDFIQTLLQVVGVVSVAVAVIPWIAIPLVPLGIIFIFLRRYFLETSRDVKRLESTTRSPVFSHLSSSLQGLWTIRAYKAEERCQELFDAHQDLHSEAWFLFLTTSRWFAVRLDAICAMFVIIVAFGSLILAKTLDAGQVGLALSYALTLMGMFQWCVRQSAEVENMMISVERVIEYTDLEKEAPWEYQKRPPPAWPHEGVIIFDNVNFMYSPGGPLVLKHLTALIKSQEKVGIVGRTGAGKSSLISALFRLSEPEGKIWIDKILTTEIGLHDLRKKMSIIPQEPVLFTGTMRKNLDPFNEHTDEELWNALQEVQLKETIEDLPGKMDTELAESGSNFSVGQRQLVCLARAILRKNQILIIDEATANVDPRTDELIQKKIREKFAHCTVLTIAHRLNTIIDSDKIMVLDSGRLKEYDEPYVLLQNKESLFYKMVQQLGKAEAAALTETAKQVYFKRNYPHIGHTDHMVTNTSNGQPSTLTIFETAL
# [3] = molecular target: ATP-binding cassette sub-family C member 2 (Homo sapiens, UniProt Q92887); assay: Inhibition of human MRP2 overexpressed in Sf9 cell membrane vesicles assessed as uptake of [3H]-estradiol-17beta-D-glucuronide in presence of ATP and GSH measured after 20 mins by membrane vesicle transport assay
# Chain of ATP-binding cassette sub-family C member 2 (Q92887 whole entry): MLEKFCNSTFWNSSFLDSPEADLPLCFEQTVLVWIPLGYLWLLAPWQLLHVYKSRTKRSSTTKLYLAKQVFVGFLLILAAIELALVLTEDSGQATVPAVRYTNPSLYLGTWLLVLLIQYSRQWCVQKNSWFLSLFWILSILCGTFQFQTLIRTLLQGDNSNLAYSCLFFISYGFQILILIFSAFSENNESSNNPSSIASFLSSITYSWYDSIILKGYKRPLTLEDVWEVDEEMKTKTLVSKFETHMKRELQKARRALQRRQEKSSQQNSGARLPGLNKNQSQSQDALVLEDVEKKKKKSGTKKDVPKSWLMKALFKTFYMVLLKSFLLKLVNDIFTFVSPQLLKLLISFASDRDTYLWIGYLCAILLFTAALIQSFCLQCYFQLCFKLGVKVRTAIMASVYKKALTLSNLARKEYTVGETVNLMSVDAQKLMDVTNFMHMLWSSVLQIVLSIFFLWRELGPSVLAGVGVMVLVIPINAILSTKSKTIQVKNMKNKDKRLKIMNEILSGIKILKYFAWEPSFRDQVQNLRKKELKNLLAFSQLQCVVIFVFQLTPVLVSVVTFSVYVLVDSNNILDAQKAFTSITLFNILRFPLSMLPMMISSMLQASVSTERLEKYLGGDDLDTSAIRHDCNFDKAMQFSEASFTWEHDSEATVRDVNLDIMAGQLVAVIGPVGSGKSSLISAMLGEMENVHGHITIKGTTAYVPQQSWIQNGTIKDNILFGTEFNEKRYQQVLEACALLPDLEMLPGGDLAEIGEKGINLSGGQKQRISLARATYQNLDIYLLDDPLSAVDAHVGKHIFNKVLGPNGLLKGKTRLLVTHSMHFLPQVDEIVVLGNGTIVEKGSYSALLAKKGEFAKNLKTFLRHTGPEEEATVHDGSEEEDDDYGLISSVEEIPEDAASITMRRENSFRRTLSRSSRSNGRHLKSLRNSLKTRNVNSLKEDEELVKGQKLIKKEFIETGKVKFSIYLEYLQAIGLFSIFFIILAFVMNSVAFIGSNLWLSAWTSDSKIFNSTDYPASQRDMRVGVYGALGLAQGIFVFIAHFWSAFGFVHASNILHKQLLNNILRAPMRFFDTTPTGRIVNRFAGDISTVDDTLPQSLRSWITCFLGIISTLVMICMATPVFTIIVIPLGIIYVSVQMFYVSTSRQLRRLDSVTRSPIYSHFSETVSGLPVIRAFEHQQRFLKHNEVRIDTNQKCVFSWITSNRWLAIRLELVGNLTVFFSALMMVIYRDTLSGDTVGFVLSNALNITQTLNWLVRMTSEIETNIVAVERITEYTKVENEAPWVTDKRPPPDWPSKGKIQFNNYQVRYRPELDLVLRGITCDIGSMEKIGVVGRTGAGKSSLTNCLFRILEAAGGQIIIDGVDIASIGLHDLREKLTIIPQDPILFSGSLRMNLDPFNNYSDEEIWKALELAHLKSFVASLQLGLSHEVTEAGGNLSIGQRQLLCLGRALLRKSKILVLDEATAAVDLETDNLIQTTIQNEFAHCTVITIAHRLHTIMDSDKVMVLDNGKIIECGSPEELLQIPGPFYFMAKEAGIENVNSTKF
# [4] = molecular target: Bile salt export pump (Homo sapiens, UniProt O95342); assay: Inhibition of human BSEP overexpressed in Sf9 cell membrane vesicles assessed as uptake of [3H]-taurocholate in presence of ATP measured after 15 to 20 mins by membrane vesicle transport assay; assay type: ADME, cell-based
# Chain of Bile salt export pump (O95342 whole entry): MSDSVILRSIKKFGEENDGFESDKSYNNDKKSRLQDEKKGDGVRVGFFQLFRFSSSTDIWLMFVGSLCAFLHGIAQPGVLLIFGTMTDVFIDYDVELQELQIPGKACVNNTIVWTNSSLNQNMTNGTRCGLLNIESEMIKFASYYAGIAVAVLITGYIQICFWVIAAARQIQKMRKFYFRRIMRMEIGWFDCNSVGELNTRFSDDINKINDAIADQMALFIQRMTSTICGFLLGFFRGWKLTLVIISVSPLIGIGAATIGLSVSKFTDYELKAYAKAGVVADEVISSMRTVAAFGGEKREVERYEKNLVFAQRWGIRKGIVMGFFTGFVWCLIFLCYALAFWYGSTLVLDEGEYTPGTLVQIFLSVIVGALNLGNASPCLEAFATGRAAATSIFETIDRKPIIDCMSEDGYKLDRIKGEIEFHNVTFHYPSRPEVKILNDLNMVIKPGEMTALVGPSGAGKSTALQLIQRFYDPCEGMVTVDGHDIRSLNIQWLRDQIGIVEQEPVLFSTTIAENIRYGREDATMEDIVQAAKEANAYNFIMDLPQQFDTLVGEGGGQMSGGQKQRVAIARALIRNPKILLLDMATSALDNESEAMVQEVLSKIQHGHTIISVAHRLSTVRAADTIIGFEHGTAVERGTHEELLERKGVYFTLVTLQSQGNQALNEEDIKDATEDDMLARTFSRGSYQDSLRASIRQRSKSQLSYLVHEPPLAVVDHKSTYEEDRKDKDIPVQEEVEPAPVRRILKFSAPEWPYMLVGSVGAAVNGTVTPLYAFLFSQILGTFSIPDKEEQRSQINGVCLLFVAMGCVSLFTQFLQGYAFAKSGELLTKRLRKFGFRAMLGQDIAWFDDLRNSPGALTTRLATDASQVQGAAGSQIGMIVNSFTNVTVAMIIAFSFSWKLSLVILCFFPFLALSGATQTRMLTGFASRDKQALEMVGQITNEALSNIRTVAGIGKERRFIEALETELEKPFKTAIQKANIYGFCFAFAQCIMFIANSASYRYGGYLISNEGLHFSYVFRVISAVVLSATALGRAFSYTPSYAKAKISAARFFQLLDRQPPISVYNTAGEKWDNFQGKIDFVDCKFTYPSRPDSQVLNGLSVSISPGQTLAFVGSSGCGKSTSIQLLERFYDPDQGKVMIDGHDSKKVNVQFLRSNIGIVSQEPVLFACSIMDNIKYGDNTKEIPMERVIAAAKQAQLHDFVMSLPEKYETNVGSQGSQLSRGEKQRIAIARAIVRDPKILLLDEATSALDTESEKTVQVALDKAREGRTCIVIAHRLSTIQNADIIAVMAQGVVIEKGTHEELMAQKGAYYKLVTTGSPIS
# Chain of ATP-binding cassette sub-family C member 3 (O15438 whole entry): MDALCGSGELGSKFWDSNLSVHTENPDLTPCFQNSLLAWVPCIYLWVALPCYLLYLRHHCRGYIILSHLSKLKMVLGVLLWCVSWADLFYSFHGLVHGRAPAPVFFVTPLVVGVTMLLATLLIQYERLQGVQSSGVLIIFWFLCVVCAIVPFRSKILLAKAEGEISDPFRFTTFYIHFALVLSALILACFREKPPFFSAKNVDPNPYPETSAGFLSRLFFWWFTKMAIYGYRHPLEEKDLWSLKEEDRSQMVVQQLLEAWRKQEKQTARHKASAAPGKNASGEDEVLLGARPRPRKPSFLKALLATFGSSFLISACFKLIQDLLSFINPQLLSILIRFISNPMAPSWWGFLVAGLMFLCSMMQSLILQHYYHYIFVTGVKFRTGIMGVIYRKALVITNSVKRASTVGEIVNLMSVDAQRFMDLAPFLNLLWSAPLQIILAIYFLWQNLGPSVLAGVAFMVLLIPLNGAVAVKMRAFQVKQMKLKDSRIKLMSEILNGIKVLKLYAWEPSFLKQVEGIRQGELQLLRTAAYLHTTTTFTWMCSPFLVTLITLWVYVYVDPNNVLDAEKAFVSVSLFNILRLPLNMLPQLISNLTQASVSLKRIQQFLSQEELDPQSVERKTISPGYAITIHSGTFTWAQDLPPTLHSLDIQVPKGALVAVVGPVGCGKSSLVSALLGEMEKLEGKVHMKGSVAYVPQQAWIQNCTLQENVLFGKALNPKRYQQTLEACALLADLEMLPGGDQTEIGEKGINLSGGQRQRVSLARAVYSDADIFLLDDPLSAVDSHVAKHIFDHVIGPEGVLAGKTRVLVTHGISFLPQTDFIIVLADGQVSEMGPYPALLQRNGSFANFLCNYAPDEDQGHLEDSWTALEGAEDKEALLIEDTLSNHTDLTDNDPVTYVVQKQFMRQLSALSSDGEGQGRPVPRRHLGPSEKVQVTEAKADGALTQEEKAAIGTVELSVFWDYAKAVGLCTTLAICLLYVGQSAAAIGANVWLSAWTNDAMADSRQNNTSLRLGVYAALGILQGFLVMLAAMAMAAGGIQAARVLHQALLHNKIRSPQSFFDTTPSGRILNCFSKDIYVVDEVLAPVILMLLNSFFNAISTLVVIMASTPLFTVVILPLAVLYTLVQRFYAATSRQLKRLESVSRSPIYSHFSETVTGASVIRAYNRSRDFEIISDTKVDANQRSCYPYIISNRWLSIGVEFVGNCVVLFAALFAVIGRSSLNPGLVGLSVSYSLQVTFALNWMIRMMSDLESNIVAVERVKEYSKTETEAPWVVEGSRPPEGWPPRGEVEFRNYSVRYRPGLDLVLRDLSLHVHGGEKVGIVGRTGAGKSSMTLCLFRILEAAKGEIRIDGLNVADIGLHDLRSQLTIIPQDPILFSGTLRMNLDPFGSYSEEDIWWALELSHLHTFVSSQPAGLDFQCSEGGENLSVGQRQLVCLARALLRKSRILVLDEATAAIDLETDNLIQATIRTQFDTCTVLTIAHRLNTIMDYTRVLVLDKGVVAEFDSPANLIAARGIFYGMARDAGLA
Compound,pIC50 [1],pIC50 [2],pIC50 [3],pIC50 [4]
NS(=O)(=O)c1cc2c(cc1Cl)NCNS2(=O)=O [HYDROCHLOROTHIAZIDE],< 3.88,< 3.88,< 3.88,< 3.88
CN(C)CCCN1c2ccccc2Sc2ccc(Cl)cc21 [CHLORPROMAZINE],< 3.88,< 3.88,< 3.88,< 3.88
CN(C)CCc1c[nH]c2ccc(C[C@H]3COC(=O)N3)cc12 [ZOLMITRIPTAN],< 3.88,< 3.88,< 3.88,< 3.88
Nc1ccc(S(=O)(=O)Nc2ncccn2)cc1 [SULFADIAZINE],< 3.88,< 3.88,< 3.88,< 3.88
COc1ccccc1N1CCN(CCCNc2cc(=O)n(C)c(=O)n2C)CC1,< 3.88,< 3.88,< 3.88,< 3.88
O=P(O)(O)C(O)(Cn1ccnc1)P(=O)(O)O [ZOLEDRONIC ACID],< 3.88,< 3.88,< 3.88,< 3.88
CC(C)[C@H](N)C(=O)OCCOCn1cnc2c(=O)[nH]c(N)nc21 [VALACYCLOVIR HYDROCHLORIDE],< 3.88,< 3.88,< 3.88,< 3.88
CCOC(=O)c1ccc(N)cc1 [BENZOCAINE],< 3.88,< 3.88,< 3.88,< 3.88
CCOC(=O)C1=C(COCCN)NC(C)=C(C(=O)OC)C1c1ccccc1Cl (stereo not given) [AMLODIPINE],< 3.88,< 3.88,< 3.88,< 3.88
C=C1C[C@@H]2[C@H](CC[C@]3(C)C(=O)CC[C@@H]23)[C@@]2(C)C=CC(=O)C=C12 [EXEMESTANE],< 3.88,< 3.88,< 3.88,4.05
CCN(CC)CCOc1ccc(C(=C(Cl)c2ccccc2)c2ccccc2)cc1 [CLOMIPHENE],< 3.88,< 3.88,< 3.88,< 3.88
CNCC[C@H](Oc1cccc2ccccc12)c1cccs1 [DULOXETINE HYDROCHLORIDE],< 3.88,< 3.88,< 3.88,< 3.88
CCN[C@H]1CN(CCCOC)S(=O)(=O)c2sc(S(N)(=O)=O)cc21 [BRINZOLAMIDE],< 3.88,< 3.88,< 3.88,< 3.88
CN(C)CCC=C1c2ccccc2CCc2ccccc21 [AMITRIPTYLINE],< 3.88,< 3.88,< 3.88,< 3.88
Cc1cn([C@H]2C[C@H](N=[N+]=[N-])[C@@H](CO)O2)c(=O)[nH]c1=O [ZIDOVUDINE],< 3.88,< 3.88,< 3.88,< 3.88
CN1CCN(C(=O)O[C@H]2c3nccnc3C(=O)N2c2ccc(Cl)cn2)CC1 [ESZOPICLONE],< 3.88,< 3.88,< 3.88,< 3.88
CCOC(=O)[C@H](CCc1ccccc1)N[C@@H](C)C(=O)N1CCC[C@H]1C(=O)O [ENALAPRIL MALEATE],< 3.88,< 3.88,< 3.88,< 3.88
N[C@@H](Cc1ccc(O)c(O)c1)C(=O)O [LEVODOPA],< 3.88,< 3.88,< 3.88,< 3.88
S=P(N1CC1)(N1CC1)N1CC1 [THIOTEPA],< 3.88,< 3.88,< 3.88,< 3.88
CC(C)(C)NCC(O)c1cc(O)cc(O)c1 (stereo not given) [TERBUTALINE],< 3.88,< 3.88,< 3.88,< 3.88

# — ChEMBL document CHEMBL4028801, “A multifactorial approach to hepatobiliary transporter assessment enables improved therapeutic compound development” (Toxicol Sci, 2013)
